The values that follow come from ChEMBL document CHEMBL4371021, “BH3 mimetics derived from Bim-BH3 domain core region show PTP1B inhibitory activity” (Bioorg Med Chem Lett, 2019).

Activity calls are given as the source filed them. The calls are words filed in the database; no cut-off is given here.

Test [1] deals with T1, Tyrosine-protein phosphatase non-receptor type 1 (Homo sapiens) (UniProt P18031).
T1 sequence (whole entry): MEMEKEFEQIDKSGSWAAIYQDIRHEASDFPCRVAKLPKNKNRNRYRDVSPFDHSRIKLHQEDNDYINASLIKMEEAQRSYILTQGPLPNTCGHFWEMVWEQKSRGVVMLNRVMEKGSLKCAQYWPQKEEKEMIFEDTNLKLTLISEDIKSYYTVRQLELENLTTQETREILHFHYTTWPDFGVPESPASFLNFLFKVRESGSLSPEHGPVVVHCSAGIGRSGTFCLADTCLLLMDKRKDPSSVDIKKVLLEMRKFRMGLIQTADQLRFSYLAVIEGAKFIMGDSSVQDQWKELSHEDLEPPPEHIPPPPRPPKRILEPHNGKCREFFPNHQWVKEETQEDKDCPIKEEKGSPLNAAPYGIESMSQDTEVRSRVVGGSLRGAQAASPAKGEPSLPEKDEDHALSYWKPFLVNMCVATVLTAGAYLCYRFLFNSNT
In words: Binding affinity to recombinant human N-terminal poly histidine-tagged PTP1B (Glu2 to Asn321 residues) expressed in Escherichia coli assessed as association rate constant by surface plasmon resonance analysis.

In test [2] the target is T1, Tyrosine-protein phosphatase non-receptor type 1 (Homo sapiens). In words: Binding affinity to recombinant human N-terminal poly histidine-tagged PTP1B (Glu2 to Asn321 residues) expressed in Escherichia coli assessed as dissociation rate constant by surface plasmon resonance analysis.
Test [3] deals with T2, Tyrosine-protein phosphatase non-receptor type 1 (Homo sapiens, UniProt P18031).
T2 sequence (P18031 whole entry): T1 sequence (whole entry)
In words: Binding affinity to recombinant human N-terminal poly histidine-tagged PTP1B (Glu2 to Asn321 residues) expressed in Escherichia coli by surface plasmon resonance analysis. (In general: In SPR one partner is held on a chip, and binding of the other changes the refractive index at the surface.)

Test [4] addresses T1, Tyrosine-protein phosphatase non-receptor type 1 (Homo sapiens). Briefly: Inhibition of recombinant human N-terminal poly histidine-tagged PTP1B (Glu2 to Asn321 residues) expressed in Escherichia coli at 40 umol/L using pNPP as substrate measured for 4 mins relative to control.
A further test deals with HepG2. Briefly: Induction of insulin-stimulated 2-NBDG uptake in palmitic acid-induced insulin resistant human HepG2 cells at 1 umol/L preincubated for 24 hrs followed by insulin stimulation and measured after 30 mins by fluorescence assay. Format: functional, cell-based.

Regarding Ac-IWIAQELRRIGDEFNA-NH2, the Ka in test [1] was determined as 2.37 ×10⁴ /Ms. Besides, the Kdiss in test [2] amounted to 6.38 ×10⁻⁴ /s. For the same molecule, the Kd in test [3] is 26.9 nM. In addition, in test [4], the inhibition turned out to be 2.32%.
As to `CN(CCOc1ccc(CC2SC(=O)NC2=O)cc1)c1ccccn1` (stereo unspecified), the result in the test with HepG2 was Active.
In the case of Ac-IAQELRRIGDEFNA-NH2, the inhibition in test [4] worked out at 3.31%.

By Kd is commonly meant the constant that tells how readily two partners part at equilibrium. What is called inhibition is the change of the read-out against control, counted positive when it falls.
